Results taken from patent US10081632B2, “Substituted tetrahydropyrido[3′,2′:4,5]pyrrolo[1,2-α]pyrazine-2-carboxamides as RSK inhibitors” (Phoenix Molecular Designs, priority 2016, dated 2018).
Where a name gives a salt, the structure may show the parent alone.

Legend:
[1] = Solubility assessment, 20 mg/ml solution; assay type: physicochemical
Method: Solubility is an important property for therapeutic drug candidates. Poor solubility can lead to low bioavailability resulting in suboptimal drug delivery. It can also prevent the evaluation of test agents in animals because the concentration(s) needed to achieve the desired effect cannot be achieved to poor solubility. For solubility assessments, small molecules targeting RSK were compared. For these assessments, 100 mM solutions of the compounds dissolved in DMSO were diluted in DMEM growth media (Life Technologies) supplemented with fetal bovine serum (FBS, Life Technologies) and 100 units/ml penicillin and 100 units/ml streptomycin (Life Technologies) to make 20 mg/ml solutions. Once diluted, the solutions were vortexed and examined for the formation of precipitates. […] For Compound 26, a 100 mM solution of the compound dissolved in DMSO was diluted in phosphate buffered saline (Life Technologies) to make a 20 mg/ml solution. The stock of […] was chosen because this is the upper end of what would be required to dose mice for a range of studies including MTD, PK, PD and efficacy. The pH of this solution was determined to be 2, as previously described. […] At high concentrations some RSK inhibitors were highly soluble while others were not. Compound 0 is (R)—N-(1-benzyl-1H-pyrazol-4-yl)-9-methyl-6-oxo-6,7,8,9-tetrahydropyrido[3′,2′:4,5]pyrrolo[1,2-a]pyrazine-2-carboxamide. Compound 0 was not soluble, whereas Compounds 18, 20, 21, 25 and 26 were soluble under the same conditions (Table 5).

[2] = test system: 4T1 cells; assay: Monolayer growth inhibition, Alamar blue assay; assay type: cell-based; conditions: Mus musculus; 4T1 (TNBC), 5 days, single dose on day 1
Text: (§1) In all instances a single dose was given on day 1 of the experiment.

[3] = test system: HCC1143 cells; assay: Monolayer growth inhibition, Alamar blue assay; assay type: cell-based; conditions: Homo sapiens; HCC1143 (TNBC), 5 days, single dose on day 1
Text: as §1

[4] = test system: HCC1937 cells; assay: Monolayer growth inhibition, Alamar blue assay; assay type: cell-based; conditions: Homo sapiens; HCC1937 (TNBC, BRCA Mutant), 5 days, single dose on day 1
Text: as §1

[5] = test system: JIMT-1 cells; assay: Monolayer growth inhibition, Alamar blue assay; assay type: cell-based; conditions: Homo sapiens; JIMT-1 (HER2), 5 days, single dose on day 1
Text: as §1

[6] = test system: MDA-MB-231 cells; assay: Monolayer growth inhibition, Alamar blue assay; assay type: cell-based; conditions: Homo sapiens; MDA-MB-231 (TNBC), 5 days, single dose on day 1
Text: as §1

[7] = test system: MDA-MB-435 cells; assay: Monolayer growth inhibition, Alamar blue assay; assay type: cell-based; conditions: Homo sapiens; MDA-MB-435 (Melanoma), 5 days, single dose on day 1
Text: as §1

[8] = test system: MDA-MB-468 cells; assay: Monolayer growth inhibition, Alamar blue assay; assay type: cell-based; conditions: Homo sapiens; MDA-MB-468 (TNBC), 5 days, single dose on day 1
Text: as §1

[9] = test system: PC3 cells; assay: Monolayer growth inhibition, Alamar blue assay; assay type: cell-based; conditions: Homo sapiens, PC-3; PC3 (Prostate), 5 days, single dose on day 1
Text: as §1

[10] = test system: SUM149 cells; assay: Monolayer growth inhibition, Alamar blue assay; assay type: cell-based; conditions: Homo sapiens; SUM149 (TNBC, BRCA Mutant), 5 days, single dose on day 1
Text: as §1

[11] = test system: SUM149-PTXR cells; assay: Monolayer growth inhibition, Alamar blue assay; assay type: cell-based, Human; conditions: Homo sapiens; SUM149-PTXR (TNBC, BRCA Mutant), 5 days, single dose on day 1
Text: as §1

[12] = test system: T47D cells; assay: Monolayer growth inhibition, Alamar blue assay; assay type: cell-based, Human; conditions: Homo sapiens; T47D (ER/PR), 5 days, single dose on day 1
Text: as §1

[13] = test system: All cell lines; assay: Monolayer growth inhibition, Alamar blue assay, range over all cell lines; assay type: cell-based; conditions: 120 h; range of IC50 over all cell lines of the table; read-out: IC50 Values - Alamar Blue (5 Days), Range, All
Text: as §1

[14] = test system: HCC1937 cells; assay: Monolayer growth inhibition, crystal violet assay; assay type: cell-based; conditions: Homo sapiens; HCC1937 (TNBC, BRCA Mutant), 5 days, single dose on day 1
Text: (§2) In all instances a single dose was given on day 1 of the experiment. […] Complete (100%) growth suppression was achievable with several of the compounds in multiple different cell lines.

[15] = test system: JIMT-1 cells; assay: Monolayer growth inhibition, crystal violet assay; assay type: cell-based; conditions: Homo sapiens; JIMT-1 (HER2), 5 days, single dose on day 1
Text: as §2

[16] = test system: MDA-MB-468 cells; assay: Monolayer growth inhibition, crystal violet assay; assay type: cell-based; conditions: Homo sapiens; MDA-MB-468 (TNBC), 5 days, single dose on day 1
Text: as §2

[17] = test system: T47D cells; assay: Monolayer growth inhibition, crystal violet assay; assay type: cell-based; conditions: Homo sapiens; T47D (ER/PR), 5 days, single dose on day 1
Text: as §2

[18] = test system: 4T1 cells; assay: Monolayer growth inhibition, crystal violet assay; assay type: cell-based; conditions: Mus musculus; 4T1 (TNBC), 5 days, single dose on day 1
Text: as §1

[19] = test system: HCC1143 cells; assay: Monolayer growth inhibition, crystal violet assay; assay type: cell-based; conditions: Homo sapiens; HCC1143 (TNBC), 5 days, single dose on day 1
Text: as §1

[20] = test system: MDA-MB-231 cells; assay: Monolayer growth inhibition, crystal violet assay; assay type: cell-based; conditions: Homo sapiens; MDA-MB-231 (TNBC), 5 days, single dose on day 1
Text: as §1

[21] = test system: MDA-MB-435 cells; assay: Monolayer growth inhibition, crystal violet assay; assay type: cell-based; conditions: Homo sapiens; MDA-MB-435 (Melanoma), 5 days, single dose on day 1
Text: as §1

[22] = test system: PC3 cells; assay: Monolayer growth inhibition, crystal violet assay; assay type: cell-based; conditions: Homo sapiens, PC-3; PC3 (Prostate), 5 days, single dose on day 1
Text: as §1

[23] = test system: SUM149 cells; assay: Monolayer growth inhibition, crystal violet assay; assay type: cell-based; conditions: Homo sapiens; SUM149 (TNBC, BRCA Mutant), 5 days, single dose on day 1
Text: as §1

[24] = test system: SUM149-PTXR cells; assay: Monolayer growth inhibition, crystal violet assay; assay type: cell-based; conditions: Homo sapiens; SUM149-PTXR (TNBC, BRCA Mutant), 5 days, single dose on day 1
Text: as §1

[25] = test system: All cell lines; assay: Monolayer growth inhibition, crystal violet assay, range over all cell lines; assay type: cell-based; conditions: 120 h; range of IC50 over all cell lines of the table; read-out: IC50 Values - Crystal Violet (5 Days), Range, All
Text: as §2

[26] = test system: MDA-MB-231 cells; assay: Soft agar growth inhibition assay; assay type: cell-based; conditions: Homo sapiens; MDA-MB-231 (TNBC), 14-22 days; read-out: IC50 Values - Soft Agar (14-22 Days)
[27] = test system: MDA-MB-468 cells; assay: Soft agar growth inhibition assay; assay type: cell-based, Human; conditions: Homo sapiens; MDA-MB-468 (TNBC), 14-22 days
[28] = test system: 4T1 cells; assay: Soft agar growth inhibition assay; assay type: cell-based; conditions: Mus musculus; 4T1 (TNBC), 14-22 days; read-out: IC50 Values - Soft Agar (14-22 Days)
Method: Two agar (Alfa Aesar) solutions (0.8% w/v and 0.4% w/v) were prepared in ultrapure water. The 0.8% agar solution was mixed in equal volumes with 2× media previously prepared from powder (Life Technologies) following the manufacturer's instructions and filter sterilized. The 0.8% agar and media solution was added to 24 well plates (Mandel Scientific) at 500 μl per well. The plates were placed in a humidified incubator at 37° C. with 5% CO2. Next, the 0.4% agar solution was mixed in equal volumes with 2× media. Breast cancer cell lines were added to this solution to achieve a final concentration of 2×10^4 cells per well and […] was added to each well on top of the bottom agar and media layer. […] The plates were returned to the incubator for 10-32 days, with a re-dosing of compounds or DMSO every 7 days. After 10-32 days, colonies were counted in 3 different fields of view for each well.
Representative compounds described herein were tested in the soft agar growth inhibition assay against the 4T1 breast cancer cell line.

[29] = test system: phosphorylated Y-box binding protein-1 (YB-1) at serine 102 (P-YB-1S102); assay: Immunoblotting of cell signalling, loss of P-YB-1 in MDA-MB-231 cells; conditions: Homo sapiens, MDA-MB-231, read-out: IC50 values for P-YB-1
Method: Following desired experimental conditions, breast cancer cell lines grown and treated in 6 well plates or 100 mm culture dishes (Grenier Bio-One) were placed on ice and the supernatant from each well was removed and the cells were washed in cold PBS. Following removal of PBS, cells were exposed to radioimmunoprecipitation assay (RIPA) buffer (50 mM Tris-HCl (pH 8), 150 mM NaCl, 1% NP-40, 0.5% sodium deoxycholate, 0.1% SDS; Fisher Scientific) supplemented with 1% phosphatase inhibitor (Fisher Scientific) and 1% protease inhibitor (Fisher Scientific) for 10 minutes. Samples were transferred to eppendorf tubes, vortexed and then centrifuged at 14 000 rpm for 10 minutes. Supernatants were collected as whole cell lysates.
To begin, the protein content of the lysates was measured using the Bicinchoninic Acid (BCA) Protein Assay Kit (Pierce), which included a protein standard curve generated with bovine serum albumin. Appropriate volumes of samples and loading buffer (50 mM Tris-HCl (pH 6.8), 2% SDS, 10% glycerol, 1% j-mercaptoethanol, 12.5 mM EDTA, 0.02% bromophenol blue) were mixed, ensuring that equal amounts of protein were loaded. For the majority of experiments in this study, 30 μg of protein per well was loaded. Samples were then resolved on SDS-PAGE (polyacrylamide gel electrophoresis) using various percentages of acrylamide gels (8%-12%), depending on the proteins of interest. SDS-PAGE was run in SDS running buffer (25 mM Tris, 192 mM glycine, 0.1% SDS) and then transferred to nitrocellulose membranes (Bio-Rad) in transfer buffer (48 mM Tris, 39 mM glycine, 20% (v/v) methanol) at 100 volts for 90 minutes at room temperature. Immunoblots were then blocked in 5% skim milk in tris-buffered saline with 0.1% Tween-20 (TBS-T; 50 mM Tris-HCl, pH 7.5, 150 mM NaCl, 0.1% (v/v) Tween-20 (Fisher Scientific)) for 1 to 2 hours. Immunoblots were then incubated with selected primary antibodies diluted in TBS-T with 0.1% gelatin (Bio-Rad) and 0.05% sodium azide (Alfa Aesar) overnight. Following washes with TBT-T 4 times for 8 to 10 minutes, immunoblots were incubated with appropriate secondary antibodies conjugated to horseradish peroxidise (Cell Signalling Technology) diluted in TBS-T plus 5% skim milk at a ratio of 1:5000 for 2 hours at room temperature. After an additional round of washes in TBS-T, immunoblots were exposed to combined enhanced chemiluminescence (ECL) reagents (Fisher Scientific) for 1 minute and developed using ChemiDoc MP Imaging System (Bio-Rad). For certain immunoblots, bands of proteins of interest were scanned and band intensity ratios were determined by densitometric analysis (ImageJ). […] Total YB-1 was used as a loading control (1:5000 Abcam). […] To assess whether cells are actively undergoing cell death, the activity of poly ADP ribose polymerase (PARP) (1:1000 CST) was also measured using the immunoblotting method.

Row | SMILES | IC50 [2] | IC50 [3] | IC50 [4] | IC50 [5] | IC50 [6] | IC50 [7] | IC50 [8] | IC50 [9] | IC50 [10] | IC50 [11] | IC50 [13] | IC50 [14] | IC50 [15] | IC50 [16] | IC50 [18] | IC50 [19] | IC50 [20] | IC50 [21] | IC50 [22] | IC50 [23] | further results
1 | C[C@@H]1CNC(=O)c2c(Cl)c3ccc(C(=O)Nc4cnn(Cc5ccccc5)c4)nc3n21 [Compound 24, (R)—N-(1-benzyl-1H-pyrazol-4-yl)-5-chloro-9-methyl-6-oxo-6,7,8,9-tetrahydropyrido[3′,2′:4,5]pyrrolo[1,2-a]pyrazine-2-carboxamide] | 0.5 ± 0.3 µM | 4.4 ± 1.9 µM | 9.2 ± 3.2 µM | 12.3 ± 5.9 µM | 9.8 ± 3.1 µM | 5.6 ± 0.1 µM | 4.5 ± 2.3 µM | 12 ± 4.5 µM | 1.1 ± 0.9 µM | 3.4 ± 2.1 µM | 0.5 to 12.3 µM | 5.8 ± 0.4 µM | 7.5 ± 2.2 µM | 3.3 ± 1.3 µM | 0.3 ± 0.1 µM | 5.8 ± 2.6 µM | 9.1 ± 1.3 µM | 5 ± 3.6 µM | 6.5 ± 2.8 µM | 0.9 ± 0.3 µM | Solubility, 20 mg/ml Solution ([1]; 100 mM in DMSO diluted in DMEM growth media to 20 mg/ml): Precipitate; IC50 [12]: 4.5 ± 4.1 µM; IC50 [17]: 2.7 ± 2.1 µM; IC50 [24]: 4.5 ± 1.4 µM; IC50 [25]: 0.3 to 9.1 µM; IC50 [26]: 0.4 ± 0.2 µM; IC50 [27]: 2.5 ± 2 µM; IC50 [28]: 0.7 ± 0.3 µM; IC50 [29]: 0.016 µM
2 | C[C@@H]1CNC(=O)c2cc3ccc(C(=O)Nc4cnn(Cc5ccc(CN)cc5)c4)nc3n21 [Compound 26, (R)—N-(1-(4-(aminomethyl)benzyl)-1H-pyrazol-4-yl)-9-methyl-6-oxo-6,7,8,9-tetrahydropyrido[3′,2′:4,5]pyrrolo[1,2-a]pyrazine-2-carboxamide hydrochloride salt] | 6.2 ± 2.5 µM | 9.6 ± 6.1 µM | 5.6 ± 0.4 µM | 15.5 ± 6.6 µM | 7.4 ± 1.7 µM | 3.9 ± 1.3 µM | 2.5 ± 0.7 µM | 1.9 ± 0.8 µM | 9.8 ± 5.7 µM | 8.8 ± 2.5 µM | 1.9 to 15.5 µM | 6.6 ± 1.6 µM | 12.3 ± 3.2 µM | 1.7 ± 0.2 µM | 4.9 ± 1.1 µM | 7.3 ± 2.7 µM | 3.7 ± 1.8 µM | 1.6 ± 0.3 µM | 1.5 ± 0.5 µM | 6.5 ± 4.4 µM | Solubility after addition of 4M NaOH ([1]; 20 mg/ml in PBS, pH equal to 9): remained in solution; Solubility, 20 mg/ml Solution ([1]; 100 mM in DMSO diluted in PBS to 20 mg/ml, hydrochloride salt): Soluble; pH of 20 mg/ml solution ([1]; DMSO stock diluted in PBS, pH test strips, hydrochloride salt): 2-9; IC50 [24]: 6.5 ± 2.1 µM; IC50 [25]: 1.5 to 12.3 µM; IC50 [26]: 0.2 ± 0.1 µM; IC50 [27]: 2 ± 0.2 µM; IC50 [28]: 5.3 ± 1.3 µM; IC50 [29]: 0.047 µM
